Measured values: US6737383B1, “Herbicidal oxadiazolidines” (priority 1999, dated 2004)

Columns and labels:
[1] = tested on: bedstraw; test: Test B pre/postemergence bedstraw; type: in vivo, Galium aparine
Method in brief: (§1)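 Herbicidal effect was estimated by eye on a ten-point control scale after plants spent twelve to sixteen days in a greenhouse following soil or foliar treatment. Foliar sprays targeted plants at one to four leaves; all doses were formulated in a non-phytotoxic solvent with surfactant.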

[2] = tested on: blackgrass; test: Test B pre/postemergence blackgrass; type: in vivo, Alopecurus myosuroides
Method in brief: as §1

[3] = tested on: surinam grass; test: Test B pre/postemergence surinam grass; type: in vivo, Brachiaria decumbens
Method in brief: as §1

[4] = tested on: cocklebur; test: Test B pre/postemergence cocklebur; type: in vivo, Xanthium strumarium
Method in brief: as §1

[5] = tested on: corn; test: Test B pre/postemergence corn; type: in vivo, Zea mays
Method in brief: as §1

[6] = tested on: morningglory; test: Test B pre/postemergence morningglory; type: in vivo, Ipomoea hederacea
Method in brief: as §1

[7] = tested on: pigweed; test: Test B pre/postemergence pigweed; type: in vivo, Amaranthus retroflexus
Method in brief: as §1

[8] = tested on: rape; test: Test B pre/postemergence rape; type: in vivo, Brassica napus
Method in brief: as §1

[9] = tested on: velvetleaf; test: Test B pre/postemergence velvetleaf; type: in vivo, Abutilon theophrasti
Method in brief: as §1

[10] = tested on: wheat; test: Test B pre/postemergence wheat; type: in vivo, Triticum aestivum
Method in brief: as §1

[11] = tested on: wild oat; test: Test B pre/postemergence wild oat; type: in vivo, Avena fatua
Method in brief: as §1

[12] = tested on: purple nutsedge; test: Test B pre/postemergence purple nutsedge; type: in vivo, Cyperus rotundus
Method in brief: as §1

[13] = tested on: rice; test: Test B flood test rice; type: in vivo, Oryza sativa
Method in brief: (§2)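 Flood test on plants grown to the 2-leaf stage; treated plants kept in greenhouse twelve to sixteen days, then visually rated against controls on a 0 (no effect) to 10 (complete control) scale.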

[14] = tested on: smallflower flatsedge; test: Test B flood test smallflower flatsedge; type: in vivo, Cyperus difformis
Method in brief: as §2

[15] = tested on: duck salad; test: Test B flood test duck salad; type: in vivo, Heteranthera limosa
Method in brief: as §2

[16] = tested on: bamyardgrass; test: Test B flood test barnyardgrass; type: in vivo, Echinochloa crus-galli
Method in brief: as §2

[17] = Preemergence, Rate 62 g/ha, scale of 0 to 10 where 0 is no effect and 10 is complete control
[18] = Preemergence, Rate 125 g/ha, 0 is no effect, 10 is complete control
[19] = Preemergence, Rate 250 g/ha, scale 0 to 10, 0 is no effect, 10 is complete control
[20] = Preemergence, Rate 500 g/ha, scale of 0 to 10 where 0 is no effect and 10 is complete control
[21] = Rate 62 g/ha, Postemergence, scale of 0 to 10 where 0 is no effect and 10 is complete control
[22] = Rate 125 g/ha, Postemergence, scale 0 to 10
[23] = Rate 500 g/ha, Postemergence, scale 0 to 10
[24] = Rate 62 g/ha, headed Pre-emergence (flood test species), scale 0 to 10 (0 no effect, 10 complete control)
[25] = Rate 125 g/ha, Pre-emergence, flood test species, scale 0 to 10 where 0 is no effect and 10 is complete control
[26] = Rate 250 g/ha, Pre-emergence, flood-test species, scale 0 to 10, 0 is no effect, 10 is complete control
[27] = Rate 500 g/ha, headed Pre-emergence (flood test species), scale 0 to 10 (0 no effect, 10 complete control)

Cc1nc(C)c(-n2c(=O)on(C(=O)N(c3ccc(F)cc3)C(C)C)c2=O)s1 [Compound 198]
2: Plant response rating (0 to 10; 0 is no effect, 10 is complete control), Morningglory ([6]; Rate 250 g/ha, Postemergence)
0: Bedstraw plant response rating [1, 17] | Bedstraw plant response rating (0 to 10 scale) [1, 18] | Bedstraw plant response rating [1, 19] | Plant response rating, Bedstraw [1, 20] | Bedstraw plant response rating [1, 21] | Bedstraw plant response rating [1, 22] | Plant response rating (0 to 10; 0 is no effect, 10 is complete control), Bedstraw ([1]; Rate 250 g/ha, Postemergence) | Blackgrass plant response rating [2, 17] | Blackgrass plant response rating (0 to 10 scale) [2, 18] | Blackgrass plant response rating [2, 19] | Plant response rating, Blackgrass [2, 20] | Blackgrass plant response rating [2, 21] | Blackgrass plant response rating [2, 22] | Plant response rating (0 to 10; 0 is no effect, 10 is complete control), Blackgrass ([2]; Rate 250 g/ha, Postemergence) | Blackgrass plant response rating [2, 23] | B. signalgrass plant response rating [3, 17] | B. signalgrass plant response rating (0 to 10 scale) [3, 18] | B. signalgrass plant response rating [3, 19] | Plant response rating, B. signalgrass [3, 20] | B. signalgrass plant response rating [3, 21] | B. signalgrass plant response rating ([3]; Rate 125 g/ha, Postemergence, scale 0 (no effect) to 10 (complete control)) | Plant response rating, B. signalgrass ([3]; Rate 250 g/ha, Postemergence, scale 0 to 10, 0 is no effect, 10 is complete control) | B. signalgrass plant response rating ([3]; Rate 500 g/ha, Postemergence, scale 0 to 10, 0 no effect, 10 complete control) | Cocklebur plant response rating [4, 17] | Cocklebur plant response rating (0 to 10 scale) [4, 18] | Cocklebur plant response rating [4, 19] | Plant response rating, Cocklebur [4, 20] | Cocklebur plant response rating [4, 21] | Cocklebur plant response rating [4, 22] | Plant response rating (0 to 10; 0 is no effect, 10 is complete control), Cocklebur ([4]; Rate 250 g/ha, Postemergence) | Cocklebur plant response rating [4, 23] | Corn plant response rating [5, 17] | Corn plant response rating (0 to 10 scale) [5, 18] | Corn plant response rating [5, 19] | Plant response rating, Corn [5, 20] | Corn plant response rating [5, 21] | Corn plant response rating [5, 22] | Plant response rating (0 to 10; 0 is no effect, 10 is complete control), Corn ([5]; Rate 250 g/ha, Postemergence) | Corn plant response rating [5, 23] | Morningglory plant response rating [6, 17] | Morningglory plant response rating (0 to 10 scale) [6, 18] | Morningglory plant response rating [6, 19] | Plant response rating, Morningglory [6, 20] | Morningglory plant response rating [6, 21] | Morningglory plant response rating [6, 22] | Redroot pigweed plant response rating [7, 17] | Redroot pigweed plant response rating (0 to 10 scale) [7, 18] | Redroot pigweed plant response rating [7, 19] | Plant response rating, Redroot pigweed [7, 20] | Redroot pigweed plant response rating [7, 21] | Redroot pigweed plant response rating [7, 22] | Plant response rating (0 to 10; 0 is no effect, 10 is complete control), Redroot pigweed ([7]; Rate 250 g/ha, Postemergence) | Redroot pigweed plant response rating [7, 23] | Rape plant response rating [8, 17] | Rape plant response rating (0 to 10 scale) [8, 18] | Rape plant response rating [8, 19] | Plant response rating, Rape [8, 20] | Rape plant response rating [8, 21] | Rape plant response rating [8, 22] | Plant response rating (0 to 10; 0 is no effect, 10 is complete control), Rape ([8]; Rate 250 g/ha, Postemergence) | Rape plant response rating [8, 23] | Velvetleaf plant response rating [9, 17] | Velvetleaf plant response rating [9, 19] | Plant response rating, Velvetleaf [9, 20] | Velvetleaf plant response rating [9, 21] | Velvetleaf plant response rating [9, 22] | Plant response rating (0 to 10; 0 is no effect, 10 is complete control), Velvetleaf ([9]; Rate 250 g/ha, Postemergence) | Wheat plant response rating [10, 17] | Wheat plant response rating [10, 19] | Plant response rating, Wheat [10, 20] | Wheat plant response rating [10, 21] | Wheat plant response rating [10, 22] | Plant response rating (0 to 10; 0 is no effect, 10 is complete control), Wheat ([10]; Rate 250 g/ha, Postemergence) | Wild oats plant response rating [11, 17] | Wild oats plant response rating [11, 19] | Plant response rating, Wild oats [11, 20] | Wild oats plant response rating [11, 21] | Wild oats plant response rating [11, 22] | Plant response rating (0 to 10; 0 is no effect, 10 is complete control), Wild oats ([11]; Rate 250 g/ha, Postemergence) | Nutsedge plant response rating [12, 17] | Nutsedge plant response rating (0 to 10 scale) [12, 18] | Nutsedge plant response rating [12, 19] | Plant response rating, Nutsedge [12, 20] | Nutsedge plant response rating [12, 21] | Nutsedge plant response rating [12, 22] | Plant response rating (0 to 10; 0 is no effect, 10 is complete control), Nutsedge ([12]; Rate 250 g/ha, Postemergence) | Nutsedge plant response rating [12, 23] | Rice plant response rating [13, 24] | Rice plant response rating [13, 25] | Rice plant response rating [13, 26] | Plant response rating, Rice [13, 27] | S. Flatsedge plant response rating [14, 24] | S. Flatsedge plant response rating [14, 25] | S. Flatsedge plant response rating [14, 26] | S. Flatsedge plant response rating ([14]; Rate 500 g/ha, Pre-emergence, flood test species, scale 0 to 10 (0 no effect, 10 complete control)) | Ducksalad plant response rating [15, 24] | Ducksalad plant response rating [15, 25] | Ducksalad plant response rating [15, 26] | Plant response rating, Ducksalad [15, 27] | Barnyardgrass plant response rating [16, 24] | Barnyardgrass plant response rating [16, 25] | Barnyardgrass plant response rating [16, 26] | Plant response rating, Barnyardgrass [16, 27]
3: Morningglory plant response rating [6, 23]
